molecular target: T1, Tumor necrosis factor receptor superfamily member 16 (Homo sapiens, UniProt P08138); assay: Inhibition of [125I]- NGF binding to extracellular domain of p75 receptor
T1 sequence (P08138 whole entry): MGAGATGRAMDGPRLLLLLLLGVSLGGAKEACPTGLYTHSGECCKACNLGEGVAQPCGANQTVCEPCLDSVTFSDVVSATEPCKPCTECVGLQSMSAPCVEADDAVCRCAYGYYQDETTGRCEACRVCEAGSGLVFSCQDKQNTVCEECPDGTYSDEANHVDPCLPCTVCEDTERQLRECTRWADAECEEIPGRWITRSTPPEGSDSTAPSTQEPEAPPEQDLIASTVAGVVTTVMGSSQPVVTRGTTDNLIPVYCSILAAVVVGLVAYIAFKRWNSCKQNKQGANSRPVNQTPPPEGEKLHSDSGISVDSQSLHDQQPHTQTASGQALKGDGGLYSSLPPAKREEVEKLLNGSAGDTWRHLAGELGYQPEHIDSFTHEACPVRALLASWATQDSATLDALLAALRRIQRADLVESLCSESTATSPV

SMILES | IC50 [nM]
COC(=O)c1c(C)sc2c(O)cc(C(=O)Nn3cnnn3)nc12 | 1300
Cn1c2ccc(NC(=O)c3ccccc3)cc2c(=O)n2nc(C(=O)O)cc12 | 200
Nc1ccc2nc(C(=O)O)cc(O)c2c1 | 3100
COC(=O)c1c(C)sc2c(O)cc(C(=O)O)nc12 | 2300

molecular target: T1, Tumor necrosis factor receptor superfamily member 16; assay: Inhibition of [125I]- NGF binding to extracellular domain of p75 receptor; IA=Inactive

SMILES | IC50
Cc1ccc(C(=O)Nc2ccc3c(c2)c(=O)cc(C(=O)O)n3C)cc1 | Not Active
Cc1ccc(C(=O)Nc2ccc3nc(C(=O)O)cc(O)c3c2)cc1 | Not Active
O=C(O)c1cc(O)c2c(Cl)cc(Cl)cc2n1 | Not Active
O=C(O)c1cc(O)c2cc([N+](=O)[O-])ccc2n1 | Not Active
O=C(O)c1cc(=O)c2ccccc2[nH]1 [TRANSTORINE] | Not Active
NC(=O)c1ccc2nc(C(=O)O)cc(O)c2c1 | Not Active
O=C(O)c1cc(O)c2c(C(=O)O)cccc2n1 | Not Active
Cc1ccc(C(=O)Nc2ccc3c(O)cc(C(=O)O)nc3c2)cc1 | Not Active
O=C(O)c1ccc2nc(C(=O)O)cc(O)c2c1 | Not Active
O=C(O)c1ccc2c(O)cc(C(=O)O)nc2c1 | Not Active
Cn1c(C(=O)O)cc(=O)c2cc(N)ccc21 | Not Active

molecular target: T2, Tumor necrosis factor receptor superfamily member 16 (Homo sapiens) (UniProt P08138); assay: Percent inhibition of [125I]- NGF binding to extracellular domain of p75 receptor at 10 uM
T2 sequence (whole entry): T1 sequence (P08138 whole entry)

SMILES | inhibition [%]
COc1cc(C(=O)O)nc2ccc(N)cc12 | 28
Nc1cccc2nc(C(=O)O)cc(O)c12 | 50
COc1cc(C(=O)O)nc2ccc(NC(=O)c3ccc(C)cc3)cc12 | 29
Nc1ccc2c(O)cc(C(=O)O)nc2c1 | 37
Cc1ccc(C(=O)Nc2cccc3nc(C(=O)O)cc(O)c23)cc1 | 38
